According to patent publication US11492644B2, “Genetically induced nephron progenitors” (MURDOCH CHILDRENS RESEARCH INSTITUTE, priority 2017, dated 2022):

Test system: Cited1
Test: In situ reprogramming by renal pelvis hydrodynamic injection
Type: in vivo, mouse
Conditions: Cited1-CreERT2 BAC transgenic mice, 72 h post-injection
Method: Renal pelvis hydrodynamic injection was performed as previously described (Woodard et al Sci Rep 2017, Woodard et al J. Vis. Exp. 2017) on 15 week-old Cited1-CreER^T2 BAC transgenic mice (Boyle et al Dev. Biol. 2008). Mice were assayed for presence of the GFP transgene at weaning (Transnetyx, Cordova, Tenn.). A solution of 50 ug of pT-mSES in 100 uL of buffer QR (Minis Bio, Madison, Wis.) was injected quickly into the renal pelvis of mice anesthetized with ketamine/xylazine. Mice were treated every 8-12 h with buprenorphine for pain management for 48 h and sacrificed at 72 h post-injection.
There were eGFP-positive cells with a similar morphology present in both QR-injected and pT-mSES-injected transgenic animals (FIG. 16, panels a and b). However, only in the pT-mSES-injected transgenic animals were there cells appearing to be derived from tubule-like structures that were eGFP-positive (FIG. 16c). In contrast, in wild-type, non-transgenic mice receiving either QR or pT-mSES, no positive eGFP cells could be found. Therefore, cellular reprogramming to an induced nephron progenitor state may be possible in vivo following gene delivery of Snai2, Six1 and Eya1.

pT-mSES: piggyBac transposon plasmid (SEQ ID NO:12) expressing mouse Six1, Snai2 and Eya1 from the elongation factor 1 alpha promoter
eGFP expression from the Cited1 promoter: induced eGFP expression indicative of Cited1 positivity
